In US4914198A, “Novel substance UCY1003 and process for preparing the same” (priority 1985, dated 1990):
In brackets after ≈: the same amount, converted by molar mass.

Tests used:
Acute toxicity in mice = settings: mouse, in vivo, ip; single intraperitoneal administration, 5 ddY mice, 14 days observation, Beherns Karber's method
Protocol: UCY1003 was intraperitoneally administered once to each animal of the test group consisting of 5 ddY mice. […] The LD50 was determined by Beherns Karber's method to be more than 200 mg/kg.

[1] = test system: Bacillus subtilis No. 10707; experiment: Agar dilution method (pH 7), MIC; type: cell-based
From the text: (§1) Anti-bacterial activities of UCY1003 against various microorganisms measured by agar dilution method (pH 7) are shown in Table 3.

[2] = test system: Saccharomyces cerevisiae C-203; experiment: Agar dilution method (pH 7), MIC; type: cell-based; settings: C203
From the text: as §1

[3] = test system: Klebsiella pneumoniae ATCC 10031; experiment: Agar dilution method (pH 7), MIC; type: cell-based; settings: ATCC10031
From the text: as §1

Escherichia coli ATCC 26 = experiment: Agar dilution method (pH 7), MIC; type: cell-based; settings: ATCC26
From the text: as §1

[4] = test system: Staphylococcus aureus ATCC 6538P; experiment: Agar dilution method (pH 7), MIC; type: cell-based; settings: ATCC6538P
From the text: as §1

[5] = test system: Salmonella typhosa ATCC 9992; experiment: Agar dilution method (pH 7), MIC; type: cell-based; settings: Salmonella enterica
From the text: as §1

[6] = test system: Candida albicans ATCC 10231; experiment: Agar dilution method (pH 7), MIC; type: cell-based; settings: ATCC10231
From the text: as §1

[7] = test system: male dd mice (number of writhes); experiment: Analgesic activity: acetic acid-induced writhing in mice; type: in vivo; settings: for Inhibition Ratio: i.p., 60 min before acetic acid, N = 4
Protocol: In this experiment, 4 male dd mice wieghing 20±1 g were used as one group for examination of analgesic activity. Sixty minutes after intraperitoneal administration of UCY1003 to each animal, 0.2 ml of a 0.7% acetic acid solution was intraperitoneally administered to the animal. Starting 10 minutes after the administration of acetic acid, the number of writhes occurred in 5 minutes was counted. Inhibition ratio in comparison with control group was calculated by the following equation. ED50 value was calculated in accordance with Litchfield and Wilcoxon. [formula] A: Average number of writhes of control group B: Average number of writhes of test group

[8] = test system: Male spontaneously hypertensive rats (SHR) of Okamoto-Aoki strain; experiment: Hypotensive activity: systolic blood pressure of conscious SHR, tail artery, plethysmographic apparatus; type: in vivo, rat (SHR; settings: for Blood Pressure after (90 min): 90 min after administration; for Blood Pressure after (90 min) / Blood Pressure Difference (before vs 90 min after administration) / Blood Pressure before: N = 3; for Blood Pressure after (90 min) / Blood Pressure before: mean ± S.E.; for Blood Pressure Difference (before vs 90 min after administration): a decrease; for Blood Pressure before: before administration (baseline)
Protocol: Male spontaneously hypertensive rats (SHR) of Okamoto-Aoki strain (body weight, 310-360 g) were used. Systolic blood pressure of conscious SHR was measured indirectly from the tail artery with a plethysmographic apparatus (Ueda Electric Works, USM-105R). Test compound UCY1003 was suspended in 0.3% sodium carboxymethylcellulose (CMC) solution and was intraperitoneally administered in a volume of 2 ml per kg of body weight.

SMILES: C=C(CCC1(C)OC2O[C@@H]3C[C@H]1[C@]21CC[C@@H]2[C@@]4(C)CC[C@H](O)C[C@@H]4C[C@@H]4O[C@@]42[C@H]31)C(C)C (stereo partly drawn) [UCY1003]
- LD50 at 336 h (Acute toxicity in mice): > 200 mg/kg
- MIC [1]: > 100 µg/mL
- MIC [2]: 2 µg/mL (≈ 4.52 µM)
- MIC [3]: > 100 µg/mL
- MIC (Escherichia coli ATCC 26): > 100 µg/mL
- MIC [4]: > 100 µg/mL
- MIC [5]: > 100 µg/mL
- MIC [6]: > 100 µg/mL
- Inhibition Ratio ([7]; 5 mg/kg): 17%
- Inhibition Ratio ([7]; 10 mg/kg): 52%
- Inhibition Ratio ([7]; 25 mg/kg): 52%
- Inhibition Ratio ([7]; 50 mg/kg): 83%
- Inhibition Ratio ([7]; 100 mg/kg): 95%
- ED50 ([7]; Mus musculus, ip, calculated in accordance with Litchfield and Wilcoxon): 17 mg/kg
- Blood Pressure after (90 min) ([8]; 50 mg/kg, i.p.): 177 ± 14 mmHg
- Blood Pressure Difference (before vs 90 min after administration) ([8]; 50 mg/kg, i.p.): 18 ± 15 mmHg
- hypotension ([8]; 100 mg/kg, i.p.): caused hypotension
- Blood Pressure after (90 min) ([8]; 100 mg/kg, i.p.): 142 ± 9 mmHg
- Blood Pressure Difference (before vs 90 min after administration) ([8]; 100 mg/kg, i.p.): 45 ± 8 mmHg
- Blood Pressure before ([8]; 50 mg/kg i.p. group): 195 ± 8 mmHg
- Blood Pressure before ([8]; 100 mg/kg i.p. group): 187 ± 3 mmHg
